Test results reported in ChEMBL document CHEMBL2062423 (ACS Med Chem Lett, 2012).
Activity calls are given as the source filed them. The calls are words filed in the database; no cut-off is given here.

Key:
[1] = target: Sodium-dependent dopamine transporter (Homo sapiens, UniProt Q01959); experiment: Displacement of [3H]WIN-35,428 from human DAT expressed in mouse N2A cells after 15 mins by liquid scintillation counting; type: cell-based
[2] = target: Sodium-dependent dopamine transporter (Rattus norvegicus) (UniProt P23977); experiment: Binding affinity to DAT in rat striatal membrane at 10 nM incubated for 1.5 hrs prior to irradiation measured after 5 mins by photoaffinity labeling-based autoradiographic analysis; type: cell membranes; conditions: Striatum, tested as the 125I-labelled form
[3] = target: Sodium-dependent dopamine transporter (Rattus norvegicus) (UniProt P23977); experiment: Binding affinity to DAT in rat striatal membrane at 10 nM incubated for 1.5 hrs prior to irradiation measured after 5 mins by photoaffinity labeling-based autoradiographic analysis in presence of (-)-cocaine; type: cell membranes; conditions: Striatum, tested as the 125I-labelled form
[4] = target: Sodium-dependent dopamine transporter (Rattus norvegicus) (UniProt P23977); experiment: Binding affinity to DAT in rat striatal membrane at 10 nM incubated for 1.5 hrs prior to irradiation measured after 5 mins by photoaffinity labeling-based autoradiographic analysis in presence of D-methylphenidate; type: cell membranes; conditions: Striatum, tested as the 125I-labelled form

Chain of Sodium-dependent dopamine transporter (Q01959 whole entry): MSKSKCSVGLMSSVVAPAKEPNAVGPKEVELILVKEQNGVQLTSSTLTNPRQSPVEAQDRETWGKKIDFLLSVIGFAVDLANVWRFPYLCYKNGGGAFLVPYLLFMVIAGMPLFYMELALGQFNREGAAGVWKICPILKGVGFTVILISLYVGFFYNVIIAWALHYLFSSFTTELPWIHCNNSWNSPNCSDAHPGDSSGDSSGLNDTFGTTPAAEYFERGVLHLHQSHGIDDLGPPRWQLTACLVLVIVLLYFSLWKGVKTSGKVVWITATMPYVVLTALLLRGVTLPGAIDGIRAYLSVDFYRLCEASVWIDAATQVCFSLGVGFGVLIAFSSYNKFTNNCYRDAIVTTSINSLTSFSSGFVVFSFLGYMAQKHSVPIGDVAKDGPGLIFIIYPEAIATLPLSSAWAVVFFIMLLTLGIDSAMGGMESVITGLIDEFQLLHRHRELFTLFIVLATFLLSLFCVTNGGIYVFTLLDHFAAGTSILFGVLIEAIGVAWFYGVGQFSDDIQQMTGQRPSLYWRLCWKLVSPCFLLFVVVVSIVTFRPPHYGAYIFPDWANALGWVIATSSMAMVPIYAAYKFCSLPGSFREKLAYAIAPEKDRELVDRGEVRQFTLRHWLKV
Chain of Sodium-dependent dopamine transporter (Rattus norvegicus) (P23977 whole entry): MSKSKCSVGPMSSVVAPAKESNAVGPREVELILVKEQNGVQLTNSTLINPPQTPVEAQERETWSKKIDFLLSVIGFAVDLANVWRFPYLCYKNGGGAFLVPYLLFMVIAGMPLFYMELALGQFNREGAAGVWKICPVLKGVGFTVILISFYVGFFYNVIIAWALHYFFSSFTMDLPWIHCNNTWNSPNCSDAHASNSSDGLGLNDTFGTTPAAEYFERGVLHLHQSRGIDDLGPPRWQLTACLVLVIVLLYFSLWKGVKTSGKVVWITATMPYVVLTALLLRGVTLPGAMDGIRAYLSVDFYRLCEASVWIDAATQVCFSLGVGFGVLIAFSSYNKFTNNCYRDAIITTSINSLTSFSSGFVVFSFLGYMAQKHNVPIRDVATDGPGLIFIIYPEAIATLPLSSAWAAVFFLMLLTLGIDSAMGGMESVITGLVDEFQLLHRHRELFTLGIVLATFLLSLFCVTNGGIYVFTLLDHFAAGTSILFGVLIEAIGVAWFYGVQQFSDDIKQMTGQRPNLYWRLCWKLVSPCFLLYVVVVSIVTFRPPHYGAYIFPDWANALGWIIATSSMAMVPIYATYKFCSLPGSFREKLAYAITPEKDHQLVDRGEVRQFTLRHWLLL

Structure (SMILES) | Ki [1] [nM] | Activity [2] | Activity [3] | Activity [4]
COC(=O)[C@H](c1ccc(N=[N+]=[N-])cc1)[C@H]1CCCCN1 (racemic) | 35 | – | – | –
COC(=O)[C@H](c1ccc(Cl)c(Cl)c1)[C@H]1CCCCN1 (racemic) | 1.8 | – | – | –
COC(=O)[C@H](c1ccc([N+](=O)[O-])cc1)[C@H]1CCCCN1 (racemic) | 77 | – | – | –
COC(=O)[C@H](c1ccc(N=[N+]=[N-])c(I)c1)[C@H]1CCCCN1 (racemic) | 4 | Active | inactive | inactive
COC(=O)[C@H](c1ccc(N)c(I)c1)[C@H]1CCCCN1 (racemic) | 9.1 | – | – | –
COC(=O)[C@H](c1ccc(N)cc1)[C@H]1CCCCN1 (racemic) | 6.3 | – | – | –
